Values quoted from earlier work, collected in patent publication US20100003319A1, “RALOXIFENE IMMEDIATE RELEASE TABLETS” (GLENMARK GENERICS LTD., priority 2008, published 2010).

Solubility in water: very slightly soluble
SMILES: O=C(c1ccc(OCCN2CCCCC2)cc1)c1c(-c2ccc(O)cc2)sc2cc(O)ccc12 [raloxifene, [6-hydroxy-2-(4-hydroxyphenyl)-benzothiophen-3-yl]-[4-[2-(1-piperidyl)ethoxy]phenyl]-methanone]
